Data reported in ChEMBL document CHEMBL4602643, “Anti-inflammatory activities of isopimara-8(14),-15-diene diterpenoids and mode of action of kaempulchraols P and Q from Kaempferia pulchra rhizomes” (Bioorg Med Chem Lett, 2020).
Calls of active or inactive are those of the source. No cut-off for these calls is given here.

Assays:
[1] = Cytotoxicity against mouse RAW264.7 cells assessed as cell survival at 100 uM; format: cell-based; conditions: read-out: Activity
[2] = system: RAW264.7; experiment: Anti-inflammatory activity in mouse RAW264.7 cells assessed as inhibition of LPS-induced NO production at 5 uM relative to control; format: functional
[3] = system: RAW264.7; experiment: Anti-inflammatory activity in mouse RAW264.7 cells assessed as inhibition of LPS-induced NO production at 100 uM relative to control; format: functional
[4] = Cytotoxicity against mouse RAW264.7 cells assessed as cell survival at 5 uM; format: cell-based; conditions: read-out: Activity
[5] = system: RAW264.7; experiment: Anti-inflammatory activity in mouse RAW264.7 cells assessed as inhibition of LPS-induced NO production at 10 uM relative to control; format: functional
[6] = system: RAW264.7; experiment: Anti-inflammatory activity in mouse RAW264.7 cells assessed as inhibition of LPS-induced NO production; format: functional, cell-based
[7] = Cytotoxicity against mouse RAW264.7 cells assessed as cell survival at 10 uM; format: cell-based; conditions: read-out: Activity
[8] = Cytotoxicity against mouse RAW264.7 cells assessed as cell survival at 50 uM; format: cell-based; conditions: read-out: Activity
[9] = system: RAW264.7; experiment: Anti-inflammatory activity in mouse RAW264.7 cells assessed as inhibition of LPS-induced NO production at 50 uM relative to control; format: functional
[10] = system: RAW264.7; experiment: Cytotoxicity against mouse RAW264.7 cells assessed as reduction in cell viability; format: cell-based
[11] = system: RAW264.7; experiment: Inhibition of LPS-induced IL-6 production in mouse RAW264.7 cells at 25 uM by ELISA; format: functional, cell-based
[12] = system: RAW264.7; experiment: Cytotoxicity against mouse RAW264.7 cells expressing luciferase reporter gene assessed as cell survival at 5 to 25 uM; format: cell-based; conditions: raw264.7, 25 µM
[13] = system: RAW264.7; experiment: Inhibition of LPS-induced NF-kappaB activation in mouse RAW264.7 cells expressing luciferase gene at 5 to 25 uM by luciferase reporter gene assay; format: cell-based
[14] = system: RAW264.7; experiment: Inhibition of NF-kappaB activation in mouse RAW264.7 cells expressing luciferase gene at 5 to 25 uM by luciferase reporter gene assay; format: cell-based
[15] = system: RAW264.7; experiment: Antiinflammatory activity in mouse RAW264.7 cells assessed as inhibition of LPS-induced COX2 expression at 25 uM incubated for 24 hrs by Western blot analysis; format: functional, cell-based
[16] = system: J774.1; experiment: Anti-inflammatory activity in mouse J774.1 cells assessed as inhibition of LPS-induced NO production preincubated for 2 hrs before LPS stimulation and measured after 24 hrs by Griess method; format: functional, cell-based

SMILES	viability at 100 µM [1]	inhibition at 5 µM [2]	inhibition at 100 µM [3]	viability at 5 µM [4]	inhibition at 10 µM [5]	IC50 [6]	viability at 10 µM [7]	viability at 50 µM [8]	inhibition at 50 µM [9]	IC50 [10]	inhibition [11]	Activity [12]	inhibition [13]	inhibition [14]	inhibition [15]	IC50 [16]
C=C[C@]1(C)C=C2C[C@@H](O)[C@H]3C(C)(C)[C@H](O)C[C@H](O)[C@]3(C)[C@H]2CC1	101%	9.01%	24.1%	104%	15.2%	> 100 µM	113%	89.4%	34.3%							
C=C[C@]1(C)C=C2[C@@H](O)[C@@H](O)[C@H]3C(C)(C)CCC[C@]3(C)[C@@]2(O)CC1	22.1%	5.03%	60.4%	140%	16.9%	48.4 µM	81.2%	60.2%	51.4%	> 50 µM						
C=C[C@]1(C)C=C2CC[C@H]3C(C)(C)C[C@H](O)[C@H](O)[C@]3(C)[C@H]2[C@H](O)C1	66.5%	17.2%	22.4%	65.7%	11.1%	> 100 µM	50.9%	60.9%	37.1%							
C=C[C@]1(C)C=C2C[C@@H](O)[C@H]3C(C)(C)CC[C@H](O)[C@]3(C)[C@H]2CC1	67%	17.4%	26.3%	72.9%	17.7%	> 100 µM	65.7%	52.2%	35.2%							
C=C[C@]1(C)C=C2[C@H](OC(C)=O)[C@@H](O)[C@H]3C(C)(C)CCC[C@]3(C)[C@H]2CC1	3.73%	-0.32%	82.1%	100%	9.88%	32.8 µM	107%	6.17%	80.3%	32.6 µM						
C=C[C@]1(C)C=C2CC[C@H]3C(C)(C)C[C@H](O)[C@H](O)[C@]3(C)[C@H]2CC1	73.5%	4.21%	49.2%	113%	9.37%	100 µM	70.4%	70.6%	37.1%							
C=C[C@]1(C)C=C2C[C@@H](O)[C@H]3C(C)(C)CC[C@H](OC(C)=O)[C@]3(C)[C@H]2CC1	3.39%	15.2%	81.8%	106%	9.55%	36.1 µM	111%	60.3%	71.6%		Active	Non-Toxic	Active	Active	Active	
C=C[C@]1(C)C=C2[C@H](OC(C)=O)C[C@H]3C(C)(C)CCC[C@]3(C)[C@@]2(O)CC1	4.72%	20.7%	80.5%	71.5%	14.9%	41.5 µM	98.3%	88.7%	59.5%							
C=C[C@]1(C)C=C2C(=O)C[C@H]3C(C)(C)CCC[C@]3(C)[C@@]2(O)CC1	45.8%	33.3%	41.6%	93.3%	32.5%	> 100 µM	83.3%	50.7%	40.1%							
C=C[C@]1(C)C[C@@H](OC(=O)c2ccccc2)[C@H]2[C@](O)(C1=O)[C@H](OC(C)=O)C[C@H]1C(C)(C)[C@H](OC(C)=O)[C@H](O)[C@H](OC(=O)c3ccccc3)[C@@]12C																20.5 µM
C=C[C@]1(C)C=C2[C@@H](OC(C)=O)[C@@H](O)[C@H]3C(C)(C)CCC[C@]3(C)[C@@]2(O)CC1	70.3%	21.4%	47.5%	89.3%	16.7%	> 100 µM	84.7%	85.7%	24.9%	> 50 µM						
C=C[C@]1(C)C=C2CC[C@H]3C(C)(C)[C@H](O)C[C@H](O)[C@]3(C)[C@H]2CC1	47.7%	5.57%	33.8%	104%	13.3%	> 100 µM	85.1%	50%	33.4%							
C=C[C@]1(C)C=C2C[C@@H](OC(C)=O)[C@H]3C(C)(C)CCC[C@]3(C)[C@@]2(O)CC1	76%	17.7%	-3.85%	76.9%	9.03%	> 100 µM	82%	68.8%	7.9%							
C=C[C@]1(C)C=C2[C@@H](O)C[C@H]3C(C)(C)CCC[C@]3(C)[C@@]2(O)CC1	71.3%	18.4%	-5.96%	114%	14.8%	> 100 µM	98.8%	73.3%	5.89%							
C=C[C@@]1(C)C=C2CC[C@@H]3C(C)(C)C[C@@H](O)C[C@@]3(C)[C@@H]2CC1	4.35%	3.43%	81.8%	97.5%	7.09%	48.7 µM	115%	114%	50.8%							
C=C[C@]1(C)C=C2C[C@@H](O)[C@H]3C(C)(C)CCC[C@]3(C)[C@@]2(OC)CC1	37.6%	4.09%	74.2%	121%	10.8%	56.2 µM	104%	110%	46.6%							
C=C[C@]1(C)C=C2CC[C@H]3C(C)(C)C[C@H](O)[C@H](O)[C@]3(C)[C@@]2(O)CC1	27.6%	18.1%	20.8%	85.7%	7.8%	> 100 µM	85.3%	27.5%	21%							
C=C[C@]1(C)C[C@@H](OC(=O)c2ccccc2)[C@H]2[C@](O)(C1=O)[C@H](OC(C)=O)C[C@H]1C(C)(C)[C@H](O)[C@H](OC(C)=O)[C@H](OC(=O)c3ccccc3)[C@@]12C																11.5 µM
CNC(=N)NCCC[C@H](N)C(=O)O [TILARGININE ACETATE]	103%	22.8%	58.2%	112%	27%	65.5 µM	92.6%	107%	46.3%							
C=C[C@]1(C)C=C2CC[C@H]3C(C)(C)CC[C@H](O)[C@]3(C)[C@H]2CC1	3.78%	27.2%	80.5%	57.7%	14%	53.8 µM	77.4%	67.6%	47.5%							
C=C[C@@]1(C)C[C@@H](OC(=O)c2ccccc2)[C@@H]2[C@@]3(C)C=C(O)C(=O)C(C)(C)[C@@H]3C[C@@H](OC(C)=O)[C@@]2(O)C1=O																14.4 µM
C=C[C@]1(C)C=C2[C@H](O)C[C@H]3C(C)(C)CCC[C@]3(C)[C@H]2CC1	34.2%	17.4%	67.6%	76.9%	14.4%	41.7 µM	65.8%	58.8%	59.3%							
C=C[C@]1(C)C=C2CC[C@H]3C(C)(C)CC[C@H](O)[C@]3(C)[C@H]2[C@H](O)C1	27.8%	13.4%	50.4%	78.4%	6.28%	95.3 µM	86.7%	35.9%	46.6%							
C=C[C@]1(C)C=C2C(=O)C[C@H]3C(C)(C)CC[C@H](O)[C@]3(C)[C@H]2CC1	77.8%	16.5%	35.5%	86.6%	7.8%	> 100 µM	92.4%	86.8%	25.1%							
